Measurements reported in ChEMBL document CHEMBL1201862, “PubChem BioAssay data set” (2004).
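Where inhibition never reached the appropriate level, the endpoint shown equals the highest concentration tested. Otherwise, values were interpolated linearly from a five-concentration, 48-hour dose response in 96-well plates. GI50 = concentration required for 50% inhibition of growth.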 Active and inactive are the calls of the source. No stated cut-off is given here; in the data, active = GI50 up to about 1.1 µM and inactive = higher.

Tests used:
Assay in all cases: growth of human tumour cells (NCI), 48 h
786-0 = test system: 786-0
A498 = test system: A498
A549 = test system: A549
ACHN = test system: ACHN
BT-549 = test system: BT-549
CAKI-1 = test system: CAKI-1
CCRF-CEM = test system: CCRF-CEM
COLO 205 = test system: COLO 205
DU-145 = test system: DU-145
EKVX = test system: EKVX
HCC 2998 = test system: HCC 2998
HCT-116 = test system: HCT-116
HCT-15 = test system: HCT-15
HL-60 = test system: HL-60
HOP-62 = test system: HOP-62
HOP-92 = test system: HOP-92
HT-29 = test system: HT-29
IGROV-1 = test system: IGROV-1
K562 = test system: K562
KM12 = test system: KM12
LOX IMVI = test system: LOX IMVI
M14 = test system: M14
MCF7 = test system: MCF7
MDA-MB-231 = test system: MDA-MB-231
MDA-MB-435 = test system: MDA-MB-435
MDA-N = test system: MDA-N
MOLT-4 = test system: MOLT-4
Malme-3M = test system: Malme-3M
NCI-H226 = test system: NCI-H226
NCI-H23 = test system: NCI-H23
NCI-H460 = test system: NCI-H460
NCI-H522 = test system: NCI-H522
NCI/ADR-RES = test system: NCI/ADR-RES
OVCAR-3 = test system: OVCAR-3
OVCAR-4 = test system: OVCAR-4
OVCAR-5 = test system: OVCAR-5
OVCAR-8 = test system: OVCAR-8
PC-3 = test system: PC-3
RPMI-8226 = test system: RPMI-8226
RXF 393 = test system: RXF 393
SF-268 = test system: SF-268
SF-295 = test system: SF-295
SF-539 = test system: SF-539
SK-MEL-28 = test system: SK-MEL-28
SK-MEL-2 = test system: SK-MEL-2
SK-MEL-5 = test system: SK-MEL-5
SK-OV-3 = test system: SK-OV-3
SN12C = test system: SN12C
SNB-19 = test system: SNB-19
SNB-75 = test system: SNB-75
SR = test system: SR
SW-620 = test system: SW-620
T47D = test system: T47D
TK-10 = test system: TK-10
U-251 = test system: U-251
UACC-257 = test system: UACC-257
UACC-62 = test system: UACC-62
UO-31 = test system: UO-31
Hs-578T = test system: Hs-578T

Measured: GI50

CC(NC(=O)OC(C)(C)C)C(=O)NC(Cc1ccccc1)C(=O)NCC(=O)ON=C1CCCC1 (stereo unspecified)
inactive: 786-0 > 100 µM | A498 > 100 µM | A549 > 100 µM | ACHN > 100 µM | BT-549 > 100 µM | CAKI-1 > 100 µM | CCRF-CEM 90.2 µM | COLO 205 > 100 µM | DU-145 > 100 µM | EKVX > 100 µM | HCC 2998 89.7 µM | HCT-116 72.8 µM | HL-60 > 100 µM | HOP-62 > 100 µM | HOP-92 > 100 µM | HT-29 > 100 µM | IGROV-1 > 100 µM | K562 43.6 µM | KM12 57.4 µM | LOX IMVI > 100 µM | M14 53.3 µM | MCF7 63.1 µM | MDA-MB-231 43.5 µM | MDA-MB-435 > 100 µM | MDA-N 35.6 µM | MOLT-4 41.9 µM | Malme-3M > 100 µM | NCI-H226 > 100 µM | NCI-H23 > 100 µM | NCI-H460 > 100 µM | NCI-H522 32.7 µM | NCI/ADR-RES > 100 µM | OVCAR-3 > 100 µM | OVCAR-4 > 100 µM | OVCAR-5 > 100 µM | OVCAR-8 > 100 µM | PC-3 > 100 µM | RPMI-8226 97.5 µM | RXF 393 > 100 µM | SF-268 > 100 µM | SF-295 > 100 µM | SF-539 > 100 µM | SK-MEL-28 > 100 µM | SK-MEL-2 > 100 µM | SK-MEL-5 > 100 µM | SK-OV-3 > 100 µM | SN12C > 100 µM | SNB-19 > 100 µM | SNB-75 93.1 µM | SR 31 µM | SW-620 > 100 µM | T47D > 100 µM | TK-10 > 100 µM | U-251 68.1 µM | UACC-257 > 100 µM | UACC-62 > 100 µM | UO-31 65.8 µM
> 100 µM: HCT-15

CCCCc1ccc(N2C(=O)c3cccnc3S2(=O)=O)cc1
> 100 µM: HCT-15
inactive: 786-0 > 100 µM | A498 > 100 µM | A549 > 100 µM | ACHN > 100 µM | BT-549 > 100 µM | CAKI-1 > 100 µM | CCRF-CEM > 100 µM | COLO 205 > 100 µM | DU-145 > 100 µM | EKVX > 100 µM | HCC 2998 > 100 µM | HCT-116 > 100 µM | HL-60 > 100 µM | HOP-62 > 100 µM | HOP-92 > 100 µM | HT-29 > 100 µM | IGROV-1 > 100 µM | K562 > 100 µM | KM12 > 100 µM | M14 > 100 µM | MCF7 > 100 µM | MDA-MB-231 > 100 µM | MDA-MB-435 > 100 µM | MDA-N > 100 µM | MOLT-4 > 100 µM | Malme-3M > 100 µM | NCI-H226 > 100 µM | NCI-H23 > 100 µM | NCI-H460 > 100 µM | NCI-H522 > 100 µM | NCI/ADR-RES > 100 µM | OVCAR-3 > 100 µM | OVCAR-4 > 100 µM | OVCAR-5 > 100 µM | OVCAR-8 > 100 µM | PC-3 > 100 µM | RPMI-8226 > 100 µM | RXF 393 > 100 µM | SF-268 > 100 µM | SF-295 > 100 µM | SF-539 > 100 µM | SK-MEL-28 > 100 µM | SK-MEL-2 > 100 µM | SK-OV-3 > 100 µM | SN12C > 100 µM | SNB-19 > 100 µM | SNB-75 > 100 µM | SR > 100 µM | SW-620 > 100 µM | T47D > 100 µM | U-251 > 100 µM | UACC-257 > 100 µM | UACC-62 > 100 µM | UO-31 > 100 µM

Cc1ccc([N+](=O)[O-])cc1NC(=O)C(=O)C1CCC2=C(Sc3ccccc3N2)C1=O (stereo unspecified)
> 100 µM: HCT-15
inactive: 786-0 > 100 µM | A549 > 100 µM | ACHN > 100 µM | BT-549 > 100 µM | CAKI-1 52 µM | CCRF-CEM 63.4 µM | COLO 205 > 100 µM | DU-145 > 100 µM | EKVX > 100 µM | HCC 2998 > 100 µM | HCT-116 68.2 µM | HL-60 > 100 µM | HOP-62 > 100 µM | HOP-92 > 100 µM | HT-29 > 100 µM | Hs-578T > 100 µM | IGROV-1 > 100 µM | KM12 > 100 µM | LOX IMVI > 100 µM | M14 > 100 µM | MCF7 > 100 µM | MDA-MB-231 > 100 µM | MDA-MB-435 > 100 µM | MDA-N > 100 µM | MOLT-4 43.7 µM | NCI-H226 58.7 µM | NCI-H23 > 100 µM | NCI-H460 > 100 µM | NCI-H522 > 100 µM | NCI/ADR-RES > 100 µM | OVCAR-3 23 µM | OVCAR-4 > 100 µM | OVCAR-5 > 100 µM | OVCAR-8 66.8 µM | PC-3 53 µM | RXF 393 > 100 µM | SF-268 > 100 µM | SF-295 > 100 µM | SF-539 37.5 µM | SK-MEL-28 > 100 µM | SK-MEL-2 > 100 µM | SK-MEL-5 > 100 µM | SK-OV-3 > 100 µM | SN12C > 100 µM | SNB-19 > 100 µM | SNB-75 > 100 µM | SW-620 > 100 µM | TK-10 > 100 µM | U-251 > 100 µM | UACC-257 > 100 µM | UACC-62 > 100 µM | UO-31 60 µM
